Laboratory results published in US20230391772A1, “METHODS AND COMPOSITIONS FOR TARGETED PROTEIN DEGRADATION” (Ranok Therapeutics (Hangzhou) Co. Ltd., priority 2020, published 2023).
pEC50, pIC50: −log10 of the molar value.

How the values were obtained:
HSP90a protein = molecular target: T1, HSP90a protein (Homo sapiens, UniProt P07900); test: HSP90α-binding fluorescent polarization (FP) assay, BODIPY-labeled RNK04010 probe; settings: FP competition with RNK04010 (BODIPY-labeled), 5 nM, 300 min at 25° C.
T1 construct: purchased BPS Bioscience 50298
Summary of the method: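 Competitive FP with N-terminal HSP90a; probe at 5 nM final, either BODIPY-labeled triazolone RNK04010 or FITC-geldanamycin. Test compounds as 2.5-fold dilutions from 20 μM to 5.2 nM. Incubated at 25 °C for 300 min (RNK04010) or 120 min (FITC-geldanamycin) before reading polarization.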

[1] = system: NCI-H358 human non-small cell lung cancer; test: NCI-H358 CCK-8 proliferation assay; type: cell-based; settings: NCI-H358 cells, 72 hr
Summary of the method: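 Compounds were tested as a 3-fold series from 20 μM down to 1.02 nM in CCK-8 absorbance assays. The lines used were NCI-H23 and NCI-H358, each with 1 KRAS(G12C) copy, and MIA PaCa-2 with 2 copies. Inhibition was derived relative to DMSO controls, with a no-cell blank subtracted.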

SMILES	pIC50 (HSP90a protein)	pEC50 [1]
C=CC(=O)N1CCN(c2nc(NCCC(=O)N3CCC(CN4CCN(Cc5ccc(-n6c(C(=O)NCC(F)(F)F)nnc6-c6cc(C)c(O)cc6O)cc5)CC4)CC3)nc3c2CCN(c2cccc4ccccc24)C3)C[C@H]1CC#N [Compound 77, (R)-4-(4-((4-((1-(3-((4-(4-acryloyl-3-(cyanomethyl)piperazin-1-yl)-7-(naphthalen-1-yl)-5,6,7,8-tetrahydropyrido[3,4-d]pyrimidin-2-yl)amino)propanoyl)piperidin-4-yl)methyl)piperazin-1-yl)methyl)phenyl)-5-(2,4-dihydroxy-5-methylphenyl)-N-(2,2,2-trifluoroethyl)-4H-1,2,4-triazole-3-carboxamide, trifluoroacetic acid]	6.00 to 7.00	6.00 to 7.00
C=CC(=O)N1CCN(c2nc(NCCC(=O)NCc3ccc(-n4c(O)nnc4-c4ccc(O)cc4O)cc3)nc3c2CCN(c2cccc4ccccc24)C3)C[C@H]1CC#N [Compound 81]	< 6.00	< 6.00
C=CC(=O)N1CCN(c2nc(NCCC(=O)NCc3ccc(-n4c(O)nnc4-c4cc(C(C)C)c(O)cc4O)cc3C(F)(F)F)nc3c2CCN(c2cccc4ccccc24)C3)C[C@H]1CC#N [Compound 82, (R)-3-((4-(4-acryloyl-3-(cyanomethyl)piperazin-1-yl)-7-(naphthalen-1-yl)-5,6,7,8-tetrahydropyrido[3,4-d]pyrimidin-2-yl)amino)-N-(4-(3-(2,4-dihydroxy-5-isopropylphenyl)-5-hydroxy-4H-1,2,4-triazol-4-yl)-2-(trifluoromethyl)benzyl)propanamide, trifluoroacetic acid]	6.00 to 7.00	< 6.00
C=CC(=O)N1CCN(c2nc(NCCC(=O)NCc3ccc(-n4c(O)nnc4-c4cc(CC)c(O)cc4O)cc3F)nc3c2CCN(c2cccc4cccc(Cl)c24)C3)C[C@H]1CC#N [Compound 83, (R)-3-((4-(4-acryloyl-3-(cyanomethyl)piperazin-1-yl)-7-(8-chloronaphthalen-1-yl)-5,6,7,8-tetrahydropyrido[3,4-d]pyrimidin-2-yl)amino)-N-(4-(3-(5-ethyl-2,4-dihydroxyphenyl)-5-hydroxy-4H-1,2,4-triazol-4-yl)-2-fluorobenzyl)propanamide, trifluoroacetic acid]	< 6.00	< 6.00
C=CC(=O)N1CCN(c2nc(NCCC(=O)N3CCC(Cc4ccc(-n5c(O)nnc5-c5cc(C(C)C)c(O)cc5O)cc4)CC3)nc3c2CCN(c2cccc4ccccc24)C3)C[C@H]1CC#N [Compound 84, (R)-2-(1-acryloyl-4-(2-((3-(4-(4-(3-(2,4-dihydroxy-5-isopropylphenyl)-5-hydroxy-4H-1,2,4-triazol-4-yl)benzyl)piperidin-1-yl)-3-oxopropyl)amino)-7-(naphthalen-1-yl)-5,6,7,8-tetrahydropyrido[3,4-d]pyrimidin-4-yl)piperazin-2-yl)acetonitrile, trifluoroacetic acid]	6.00 to 7.00	6.00 to 7.00
C=CC(=O)N1CCN(c2nc(NCCC(=O)NCCc3ccc(-n4c(O)nnc4-c4cc(C(C)C)c(O)cc4O)cc3)nc3c2CCN(c2cccc4ccccc24)C3)C[C@H]1CC#N [Compound 85, (R)-3-((4-(4-acryloyl-3-(cyanomethyl)piperazin-1-yl)-7-(naphthalen-1-yl)-5,6,7,8-tetrahydropyrido[3,4-d]pyrimidin-2-yl)amino)-N-(4-(3-(2,4-dihydroxy-5-isopropylphenyl)-5-hydroxy-4H-1,2,4-triazol-4-yl)phenethyl)propanamide, trifluoroacetic acid]	6.00 to 7.00	< 6.00
C=CC(=O)N1CCN(c2nc(NCCC(=O)N3CCN(Cc4ccc5c(c4)CN(C(=O)c4ccc(O)cc4O)C5)CC3)nc3c2CCN(c2cc(O)cc4ccccc24)C3)CC1 [Compound 86, 1-(4-(2-((3-(4-((2-(2,4-dihydroxybenzoyl)isoindolin-5-yl)methyl)piperazin-1-yl)-3-oxopropyl)amino)-7-(3-hydroxynaphthalen-1-yl)-5,6,7,8-tetrahydropyrido[3,4-d]pyrimidin-4-yl)piperazin-1-yl)prop-2-en-1-one, trifluoroacetic acid]	< 6.00	< 6.00
C=CC(=O)N1CCN(c2nc(NCCC(=O)N3CCN(c4ccc(-n5c(O)nnc5-c5cc(C(C)C)c(O)cc5O)cc4)CC3)nc3c2CCN(c2cccc4cccc(Cl)c24)C3)C[C@H]1CC#N [Compound 88, (R)-2-(1-acryloyl-4-(7-(8-chloronaphthalen-1-yl)-2-((3-(4-(4-(3-(2,4-dihydroxy-5-isopropylphenyl)-5-hydroxy-4H-1,2,4-triazol-4-yl)phenyl)piperazin-1-yl)-3-oxopropyl)amino)-5,6,7,8-tetrahydropyrido[3,4-d]pyrimidin-4-yl)piperazin-2-yl)acetonitrile, trifluoroacetic acid]	6.00 to 7.00	< 6.00
C=CC(=O)N1CCN(c2nc(NCCC(=O)NCc3ccc(-n4c(O)nnc4-c4cc(CCC)c(O)cc4O)cc3)nc3c2CCN(c2cccc4cccc(Cl)c24)C3)C[C@H]1CC#N [Compound 89, (R)-3-((4-(4-acryloyl-3-(cyanomethyl)piperazin-1-yl)-7-(8-chloronaphthalen-1-yl)-5,6,7,8-tetrahydropyrido[3,4-d]pyrimidin-2-yl)amino)-N-(4-(3-(2,4-dihydroxy-5-propylphenyl)-5-hydroxy-4H-1,2,4-triazol-4-yl)benzyl)propenamide]	< 6.00	< 6.00
C=CC(=O)N1CCN(c2nc(NCCC(=O)N3CCN(c4ccc(-n5c(O)nnc5-c5cc(C(C)C)c(O)cc5O)cc4)CC3)nc3c2CCN(c2cccc4ccccc24)C3)C[C@H]1CC#N [Compound 90, (R)-2-(1-acryloyl-4-(2-((3-(4-(4-(3-(2,4-dihydroxy-5-isopropylphenyl)-5-hydroxy-4H-1,2,4-triazol-4-yl)phenyl)piperazin-1-yl)-3-oxopropyl)amino)-7-(naphthalen-1-yl)-5,6,7,8-tetrahydropyrido[3,4-d]pyrimidin-4-yl)piperazin-2-yl)acetonitrile, trifluoroacetic acid]	6.00 to 7.00	< 6.00
C=CC(=O)N1CCN(c2nc(NCCC(=O)NCc3ccc(-n4c(O)nnc4-c4cc(C(C)C)c(O)cc4O)cc3)nc3c2CCN(c2cccc4ccccc24)C3)C[C@H]1CC#N [Compound 91, (R)-3-((4-(4-acryloyl-3-(cyanomethyl)piperazin-1-yl)-7-(naphthalen-1-yl)-5,6,7,8-tetrahydropyrido[3,4-d]pyrimidin-2-yl)amino)-N-(4-(3-(2,4-dihydroxy-5-isopropylphenyl)-5-hydroxy-4H-1,2,4-triazol-4-yl)benzyl)propanamide, trifluoroacetic acid]	< 6.00	< 6.00
C=CC(=O)N1CCN(c2nc(NCCC(=O)NCCOCCOCCOc3ccc(-n4c(O)nnc4-c4cc(C(C)C)c(O)cc4O)cc3)nc3c2CCN(c2cccc4ccccc24)C3)C[C@@H]1CC#N [Compound 92, (S)-3-((4-(4-acryloyl-3-(cyanomethyl)piperazin-1-yl)-7-(naphthalen-1-yl)-5,6,7,8-tetrahydropyrido[3,4-d]pyrimidin-2-yl)amino)-N-(2-(2-(2-(4-(3-(2,4-dihydroxy-5-isopropylphenyl)-5-hydroxy-4H-1,2,4-triazol-4-yl)phenoxy)ethoxy)ethoxy)ethyl)propanamide, trifluoroacetic acid]	> 7.00	< 6.00
